For one data set, the system named is NCI-H460. Briefly: Photocytotoxicity against human NCI-H460 cells assessed as growth inhibition preincubated for 24 hrs followed by irradiation with light at 23 to 24 uW/cm'2 for 30 mins measured after 24 hrs by SRB assay. It is filed as functional. As to conditions: NCI-H460, light or radiation study.
Data set [1] in a line: Dark toxicity against human MCF7 cells assessed as growth inhibition after 24 hrs by SRB assay. It counts as cell-based.
For the next data set, the system named is MCF7. Briefly: Photocytotoxicity against human MCF7 cells assessed as growth inhibition preincubated for 24 hrs followed by irradiation with light at 23 to 24 uW/cm'2 for 30 mins measured after 24 hrs by SRB assay. The conditions noted are these: MCF7, light or radiation study. It counts as functional.
The nature of data set [2]: Dark toxicity against human NCI-H460 cells assessed as growth inhibition after 24 hrs by SRB assay. It is filed as cell-based.
The test system of the next data set is HepG2. The data set is described as follows: Photocytotoxicity against human HepG2 cells assessed as growth inhibition preincubated for 24 hrs followed by irradiation with light at 23 to 24 uW/cm'2 for 30 mins measured after 24 hrs by SRB assay. It is filed as functional. As to conditions: HepG2, light or radiation study.
The nature of data set [3]: Dark toxicity against human HepG2 cells assessed as growth inhibition after 24 hrs by SRB assay. It is filed as cell-based.
A further data set has as its system HeLa. The data set is described as follows: Photocytotoxicity against human HeLa cells assessed as growth inhibition preincubated for 24 hrs followed by irradiation with light at 23 to 24 uW/cm'2 for 30 mins measured after 24 hrs by SRB assay. As to conditions: light or radiation study. It counts as functional.
Data set [4] is described as follows: Dark toxicity against human HeLa cells assessed as growth inhibition after 24 hrs by SRB assay. It counts as cell-based.
Data set [5] in a line: Dark toxicity against human MCF7 cells assessed as growth inhibition at 0.1 uM after 24 hrs by SRB assay relative to control. It is filed as cell-based. As to conditions: read-out: GI.
The nature of data set [6]: Dark toxicity against human NCI-H460 cells assessed as growth inhibition at 0.1 uM after 24 hrs by SRB assay relative to control. It is filed as cell-based. As to conditions: read-out: GI.
The nature of data set [7]: Dark toxicity against human HepG2 cells assessed as growth inhibition at 0.1 uM after 24 hrs by SRB assay relative to control. The conditions noted are these: read-out: GI. It is filed as cell-based.
Data set [8] can be described thus: Dark toxicity against human HeLa cells assessed as growth inhibition at 0.1 uM after 24 hrs by SRB assay relative to control. It is filed as cell-based. As to conditions: read-out: GI.
Data set [9] is described as follows: Dark toxicity against porcine PLP2 cells assessed as growth inhibition after 24 hrs by SRB assay. The conditions noted are these: Sus scrofa.
The nature of data set [10]: Dark toxicity against porcine PLP2 cells assessed as growth inhibition at 0.1 uM after 24 hrs by SRB assay relative to control. As to conditions: Sus scrofa, read-out: GI.
Data set [11] is described as follows: Photocytotoxicity against porcine PLP2 cells assessed as growth inhibition preincubated for 24 hrs followed by irradiation with light at 23 to 24 uW/cm'2 for 30 mins measured after 24 hrs by SRB assay. The conditions noted are these: Sus scrofa.

Take `CCN1/C(=C/C2=C(N(C)CCO)C(=C/c3sc4ccccc4[n+]3CC)/C2=O)Sc2ccccc21`: the GI50 turned out to be 455 nM in the data set with NCI-H460, 239 nM in the data set on MCF7, 271 nM with HepG2 and 273 nM in the data set on HeLa. Besides, the GI50 at 24 h in data set [1] turned out to be 737 nM; in data set [2], 767 nM; in data set [3], 7540 nM; in data set [4], 2640 nM; in data set [9] it was 717 nM; in [11], 471 nM. Moreover, the inhibition at 24 h, 0.1 µM in data set [5], in data set [6], in data set [7], in data set [8] and in [10] was below 20% in each case.
As for `CCN1/C(=C/C2=C(N(CCO)CCO)C(=C/c3sc4ccccc4[n+]3CC)/C2=O)Sc2ccccc21`, the 50% growth inhibitory concentration (GI50) was found to be 404 nM in the data set on NCI-H460, 257 nM in the data set with MCF7, 722 nM in the data set on HepG2 and 88 nM in the data set with HeLa. Besides, the GI50 at 24 h is 5340 nM in data set [1]; 940 nM in data set [2]; 4490 nM in data set [3]; above 10000 nM in data set [4]; 621 nM in data set [9]; 340 nM in data set [11]. The inhibition at 24 h, 0.1 µM in data set [5], in [6], in [7], in data set [8] and in data set [10] was below 20% throughout.
Consider `CCN1/C(=C/C2=C(N)C(=C/c3sc4ccccc4[n+]3CC)/C2=O)Sc2ccccc21`, for which the GI50 is 8350 nM with NCI-H460, 918 nM in the data set on MCF7, 665 nM in the data set on HepG2 and 288 nM with HeLa. Also, the GI50 at 24 h is above 10000 nM in data set [1]; above 10000 nM in data set [2]; 4570 nM in [3]; above 10000 nM in data set [4]; above 10000 nM in data set [9]; 4980 nM in data set [11]. In addition, the inhibition at 24 h, 0.1 µM in [5], in data set [6], in [7], in [8] and in data set [10] was below 20% each time.
Regarding `CCN1/C(=C/C2=C(NCCO)C(=C/c3sc4ccccc4[n+]3CC)/C2=O)Sc2ccccc21`, the GI50 in the data set with NCI-H460 is 440 nM; in the data set on MCF7, 224 nM; in the data set with HepG2 it was 110 nM; with HeLa it was 97 nM. Further, the GI50 at 24 h in [1] is 7360 nM; in [2], 8820 nM; in data set [3] it was 7830 nM; in data set [4], above 10000 nM; in [9] it was 3730 nM; in data set [11] it was 385 nM. Further, the inhibition at 24 h, 0.1 µM in data set [5], in [6], in data set [7], in data set [8] and in data set [10] was below 20% in each case.
In the case of `CCN1/C(=C/C2=C(NC)C(=C/c3sc4ccccc4[n+]3CC)/C2=O)Sc2ccccc21`, the concentration for 50% growth inhibition (GI50) in the data set on NCI-H460 amounted to 171 nM; in the data set on MCF7, 54 nM; in the data set on HepG2, 78 nM; with HeLa, 71 nM. Further, the GI50 at 24 h in data set [1] was 576 nM; in [2] it was 507 nM; in [3], 7080 nM; in data set [4], 2220 nM; in [9], 410 nM; in data set [11] it was 126 nM. Moreover, the inhibition at 24 h, 0.1 µM in data set [5], in data set [6], in data set [7], in data set [8] and in data set [10] was below 20% in each case.

These data come from ChEMBL document CHEMBL4043173, “Aminosquaraines as potential photodynamic agents: Synthesis and evaluation of in vitro cytotoxicity” (Bioorg Med Chem Lett, 2017).
